Source: PubChem BioAssay (NCI)
Values joined by “and” are separate entries in the source; they are usually repeats but may differ in a detail not shown here. Equal values may be shown once.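 48-hour exposure; five concentrations; linearly interpolated endpoints. GI50 = concentration required for 50% inhibition of growth. The concentration for full growth arrest is given as TGI.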

How the values were obtained:
Assay in all cases: NCI tumour cell line growth inhibition, 48 h
[1] = tested on: IGROV1 ovarian
[2] = tested on: NCI-H23 lung
[3] = tested on: SF-268 CNS
[4] = tested on: PC-3 prostate
[5] = tested on: SNB-75 CNS
[6] = tested on: SNB-19 CNS
[7] = tested on: CCRF-CEM leukemia
[8] = tested on: MCF7 breast
[9] = tested on: SR leukemia
[10] = tested on: M14 melanoma

| SMILES | GI50 [1] | TGI [1] | GI50 [2] | TGI [2] | GI50 [3] | TGI [3] | GI50 [4] | TGI [4] | GI50 [5] | TGI [5] | GI50 [6] | TGI [6] | GI50 [7] | TGI [7] | GI50 [8] | TGI [8] | GI50 [9] | TGI [9] | GI50 [10] | TGI [10] |
| --- | --- | --- | --- | --- | --- | --- | --- | --- | --- | --- | --- | --- | --- | --- | --- | --- | --- | --- | --- | --- |
| NNC(=S)N/N=C/c1ccccn1 | 3.05 µM | > 100 µM | 3.54 µM | > 100 µM | 1.58 µM | > 100 µM | 5.62 µM | > 100 µM | 1.72 µM | 11.4 µM | 3.57 µM | > 100 µM | 2.05 µM | > 100 µM | 2.99 µM | > 100 µM | 0.884 µM | 90.1 µM | – | – |
| O=C1NC(=N[C@@H]2C[C@H]2c2ccccc2)S/C1=C\c1ccc2ncccc2c1 | 2.66 µM | 11.9 µM | 3.87 µM | 20.8 µM | 2.25 µM | 8.02 µM | 3.27 µM | 9.09 µM | 1.02 µM | 5.17 µM | 2.98 µM | 24.8 µM | 1.31 µM | > 25 µM | 0.795 µM | 4.95 µM | 0.646 µM | 3.27 µM | 1.34 µM | > 25 µM |
| CC[C@@]1(O)C(=O)OCc2c1cc1n(c2=O)Cc2cc3c(OC)cccc3nc2-1 | > 100 µM | > 100 µM | 0.0069 µM | 0.0775 µM and 0.505 µM | 0.0035 µM | 1.01 µM | – | > 100 µM | 0.00687 µM | 2.06 µM | 0.00642 µM | > 31.9 µM | 0.00022 µM | – | – | > 100 µM | – | 1.35 µM | 0.00323 µM | 1.61 µM |
| N#C/C(=C\c1ccc([N+](=O)[O-])cc1)n1nnc2cc(F)c(F)cc21 | 1.72 µM | 4 µM | 1.87 µM | 4.08 µM | 3.13 µM | 12.1 µM | 1.72 µM | 4 µM | 1.52 µM | 3.02 µM | 2.96 µM | 10.4 µM | 1.94 µM | 21.9 µM | 1.29 µM | 3.4 µM | 1.08 µM | > 100 µM | 1.83 µM | 3.74 µM |
| COc1cc2cc(Oc3ccc(NC(=O)Nc4ccc(F)c(C(F)(F)F)c4)cc3)c(C)nc2cc1OCCN1CCOCC1 | 2.69 µM | 19.5 µM | 1.43 µM | 5.88 µM | 3.66 µM | 19.8 µM | 1.44 µM | 10.1 µM | 1.96 µM | 7.45 µM | 3.96 µM | 19.3 µM | 1.72 µM | 11.5 µM | 1.46 µM | 3.48 µM | – | – | 1.53 µM | 3.31 µM |
| COC(=O)Nc1nc2ccc(C(=O)C3CC3)cc2[nH]1 | 0.29 µM | 18.2 µM | 0.47 µM | > 27.6 µM | 0.573 µM | 31.3 µM | 0.346 µM | > 100 µM | – | – | 0.88 µM | > 56.5 µM | 0.332 µM | – | 0.331 µM | > 56.1 µM | 0.455 µM | > 100 µM | 0.276 µM | – |
| O=C(NCCNc1nccc(-c2c(-c3ccc(F)cc3)nc3sccn23)n1)Nc1cccc(C(F)(F)F)c1 | 4.59 µM | 20 µM | 8.73 µM | 26.4 µM | 12.2 µM | 41.1 µM | 3.93 µM | 42.3 µM | 7.13 µM | 21.7 µM | 7.93 µM | 36.8 µM | 3.14 µM | 30.1 µM | 3.73 µM | 19.5 µM | 5.4 µM | 55.3 µM | 8.73 µM | 21.8 µM |
| COC(=O)CC12CC(NC(=O)c3csc([C@@H](C[C@H](C(C)C)N(C)C(=O)[C@@H](NC(=O)[C@H]4CCCCN4C)C(C)C)OC(C)=O)n3)(C1)C2 | 0.00917 µM and 0.0162 µM | > 33.3 µM | 0.0098 µM and 0.0167 µM | > 33.3 µM | 0.0074 µM and 0.0204 µM | > 33.3 µM | 0.00396 µM and 0.0101 µM | > 33.3 µM | 0.00265 µM | – | 0.0031 µM and 0.0114 µM | > 33.3 µM | 0.0036 µM and 0.00718 µM | > 33.3 µM | 0.00289 µM and 0.00405 µM | > 33.3 µM | 0.00187 µM and 0.00333 µM | > 33.3 µM | 0.00355 µM | – |
| CSc1nc(SC)c2c(C)cn(Cc3ccccc3)c2n1 | – | > 100 µM | – | > 100 µM | – | > 100 µM | – | > 100 µM | – | > 100 µM | – | > 100 µM | – | > 100 µM | – | > 100 µM | – | > 100 µM | – | > 100 µM |
| CCCC(c1cc(C(C)(C)C)c(O)cc1C)c1cc(C(C)(C)C)c(O)cc1C | – | 14.6 µM | – | 6.24 µM | – | 15.1 µM | – | 8.78 µM | – | – | – | 16.9 µM | – | 6.88 µM | – | 4.85 µM | – | 5.33 µM | – | 4.51 µM |
| Nc1nc(N)c2cc(Sc3ccc(Cl)cc3)ccc2n1 | 0.874 µM | 18.7 µM | 1.38 µM | 15.6 µM | 0.898 µM | 18 µM | 0.592 µM | 13.8 µM | 5.89 µM | 18.7 µM | 3.71 µM | 20.8 µM | 0.815 µM | 17.4 µM | 1.16 µM | 2.79 µM | 1.37 µM | 5.43 µM | 0.535 µM | 1.98 µM |
| COc1cccc(Nc2ncnn3ccc(CN4CC[C@@H](N)[C@H](O)C4)c23)c1 | 0.407 µM and 0.0561 µM | 6.79 µM and 2.73 µM | 2.53 µM and 3.05 µM | 18.4 µM and > 10 µM | 4.42 µM and 1.62 µM | 99.7 µM and > 6.67 µM | 15.2 µM and > 2.39 µM | > 100 µM | 0.102 µM and 0.043 µM | 0.808 µM and 0.49 µM | 14.4 µM and 8.98 µM | 97.7 µM and > 10 µM | 25.2 µM and > 4.58 µM | > 100 µM | 11.3 µM and > 4.2 µM | 24.5 µM and > 8.69 µM | 5.19 µM and > 4.99 µM | 40.7 µM and > 10 µM | 20.4 µM and > 5.03 µM | 36 µM and > 10 µM |
| NS(=O)(=O)c1ccc(N=Nc2c(O)[nH]c3cccc(CCc4ccncc4)c23)cc1 | > 25 µM | > 25 µM | > 25 µM | > 25 µM | > 25 µM | > 25 µM | > 25 µM | > 25 µM | > 25 µM | > 25 µM | > 25 µM | > 25 µM | > 25 µM | > 25 µM | > 25 µM | > 25 µM | > 25 µM | > 25 µM | > 25 µM | > 25 µM |
